The experiment concerns 429239-143-T-J1-PDC complex spheroid viability. Description: Anticancer human tumor 429239-143-T-J1-PDC patient-derived small cell lung carcinoma cell line growth inhibition [POLQ]. Conditions: for viability, T/C: stronger effect = lower value. How it is done:
Multicellular complex tumor spheroid response to Polymerase (POL) inhibitors (novobiocin, ART-558, RP6685) in combination with a variety of drugs and investigational agents in selected tumor cell lines
The POL inhibitors (novobiocin, ART-558, and RP6685) were evaluated both individually and in combination with standard of care and investigational anticancer small molecules within a complex spheroid model of solid tumors. . Complex spheroids include a stromal component modeled by human endothelial cells (HUVEC) and fibroblasts modeled by human mesenchymal stem cells (MSCs). The concentration ranges selected for each drug and investigational agent were based upon clinically achievable concentrations if the clinical Cmax of the agent was known.
Compounds. The drugs and investigational agents: novobiocin (NSC847541), ART-558 (NSC835418), RP-6685 (NSC848927), peposertib (NSC802822), ceralasertib (NSC780249), elimusertib (NSC800525), camonsertib (NSC841442), AZD-1390 (NSC803789), olaparib (NSC753686), talazoparib (NSC767125), rucaparib (NSC756644), sotorasib (NSC818433), MRTX-1133 (NSC836407), SN-38 (NSC673596), topotecan (NSC609699), epotoside (NSC141540), doxorubicin (NSC123127), gemcitabine (NSC613327), 5-fluorouracil (NSC19893), paclitaxel (NSC125973), vemurafenib (NSC761431), MSA-2 (NSC828583), SN-011 (NSC837082), adavosertib (NSC754352), prexasertib (NSC758257), carboplatin (NSC241240) and oxaliplatin (NSC266046), were obtained from the National Cancer Institute (NCI) Developmental Therapeutics Program Chemical Repository (21). The FDA-approved anticancer drug set is available from the Developmental Therapeutics Program at https://dtp.cancer.gov/organization/dscb/obtaining/. […] The stock solutions were prepared in dimethyl sulfoxide (DMSO, Sigma-Aldrich, St. Louis, MO, cat. D2650), except for the platinum compounds which were prepared in saline (Quality Biological, Gaithersburg, MD, cat. 114-055-101), at 800-fold the tested concentration and stored at -70 degrees C prior to their use. All drugs and investigational agents were tested over a range starting from a high concentration at or near the clinical Cmax and decreasing in half-log increments. If the clinical Cmax for an agent had not been determined, the highest concentration tested was 10 microM, except for SN-38, which was tested at a high concentration of 1 microM.
Cell Culture. All cells were maintained in an incubator at 37 degrees C and 5% CO2 with 95% humidity. The PDC lines were cultured according to standard operating procedures established by the NCI PDMR (https://pdmr.cancer.gov). Table 3 of the manuscript, lists the cell lines along with the number of the three cell types plated to form the mct-spheroids and media for tumor cell growth. After thawing, all PDC lines, except 997537-175-T-J1-PDC and 415267-285-R-J2-PDC, were cultured in Matrigel-coated flasks prepared with a working solution of 1X Ham's F-12 nutrient mix, without supplementation (Thermo Fisher Scientific, cat. 11765054), 100 U/mL penicillin-streptomycin (Thermo Fisher Scientific, cat. 15140122), and 2.5% Matrigel (Corning Inc., Corning, NY, cat. 354248) for the first three passages. The two PDC lines 997537-175-T-J1-PDC and 415267-285-R-J2-PDC were cultured on uncoated flasks. The 857933-349-R-J2-PDC line was cultured in 6C/Colon 1B media containing advanced DMEM/F-12 (Thermo Fisher Scientific, cat. 12634028), 10 mM HEPES (Thermo Fisher Scientific, cat. 15630080), 1X GlutaMAX supplement (Thermo Fisher Scientific, cat. 35050061), 0.1 mg/mL primocin (InvivoGen, San Diego, CA, cat. ant-pm-2), 10% defined fetal bovine serum, heat inactivated (HyClone Laboratories Inc., Logan, UT, cat. SH30070.03HI), 50% L-WRN conditioned media (ATCC, cat. CRL-3276), 1.25 mM N-Acetyl-L-cysteine (Sigma-Aldrich, cat. A9165), 10 mM nicotinamide (Sigma-Aldrich, cat. N0636), 1X B-27 supplement (Thermo Fisher Scientific, cat. 17504044), 1X N-2 supplement (Thermo Fisher Scientific, cat. […]

“And” between values parts separate entries of the source, which are not always exact repeats. Identical values can stand only once.
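Note: luminescence signal used as surrogate measure of viable cells; spheroids exposed to compounds for seven days before readout.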
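Throughout, for viability, T/C: 100% = DMSO vehicle control viability as luminescence relative to vehicle.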

One may read the IC50 as the concentration needed to halve the response being measured. Usually viability, T/C stands for the result in the treated group divided by that in the control group, in per cent. As to `CC(=O)O[C@H]1C(=O)[C@@]2(C)[C@H]([C@H](OC(=O)c3ccccc3)[C@]3(O)C[C@H](OC(=O)[C@H](O)[C@@H](NC(=O)c4ccccc4)c4ccccc4)C(C)=C1C3(C)C)[C@]1(OC(C)=O)CO[C@@H]1C[C@@H]2O` + Cc1cccc(N(C)C(=O)C2C(O)CCN2c2nc(C)cc(C(F)(F)F)c2C#N)c1, the IC50 by setting is: (curve of first compound, second compound 0.0316 µM) 13.4 nM; (curve of first compound, second compound 0.1 µM) 12.9 nM; (curve of first compound, second compound 0.316 µM) 11.6 nM; (curve of first compound, second compound 1 µM) 14.2 nM; (curve of first compound, second compound 3.16 µM) 13.2 nM; (curve of first compound, second compound 10 µM) 12.5 nM. The viability, T/C by setting is: (second compound 0.0316 µM, first compound 0.00949 µM) 63.2%; (second compound 0.0316 µM, first compound 0.03 µM) 14.9%; (second compound 0.0316 µM, first compound 0.0949 µM) 11.6%; (second compound 0.0316 µM, first compound 0.3 µM) 19.4%; (second compound 0.0316 µM, first compound 0.949 µM) 24.7%; (second compound 0.0316 µM, first compound 3 µM) 27.8%. Also, the viability, T/C (second compound 0.1 µM, first compound 0.00949 µM) was 60.9%; the viability, T/C (second compound 0.1 µM, first compound 0.03 µM) is 15.6%; the viability, T/C (second compound 0.1 µM, first compound 0.0949 µM) is 18.6%; the viability, T/C (second compound 0.1 µM, first compound 0.3 µM) was 18.5%; the viability, T/C (second compound 0.1 µM, first compound 0.949 µM) was 23%; the viability, T/C (second compound 0.1 µM, first compound 3 µM) was 24.6%. Besides, the viability, T/C (second compound 0.316 µM, first compound 0.00949 µM) was 56.6%; the viability, T/C (second compound 0.316 µM, first compound 0.03 µM) was 17.8%; the viability, T/C (second compound 0.316 µM, first compound 0.0949 µM) was 12.7%; the viability, T/C (second compound 0.316 µM, first compound 0.3 µM) is 16.9%; the viability, T/C (second compound 0.316 µM, first compound 0.949 µM) was 18.8%; the viability, T/C (second compound 0.316 µM, first compound 3 µM) was 23.9%. Besides, the viability, T/C by setting is: (second compound 1 µM, first compound 0.00949 µM) 66.5%; (second compound 1 µM, first compound 0.03 µM) 14.6%; (second compound 1 µM, first compound 0.0949 µM) 17.8%; (second compound 1 µM, first compound 0.3 µM) 17.1%; (second compound 1 µM, first compound 0.949 µM) 22.7%; (second compound 1 µM, first compound 3 µM) 24.7%. Besides, the viability, T/C was 62.5% (second compound 3.16 µM, first compound 0.00949 µM); 17% (second compound 3.16 µM, first compound 0.03 µM); 14.6% (second compound 3.16 µM, first compound 0.0949 µM); 17.2% (second compound 3.16 µM, first compound 0.3 µM); 21.7% (second compound 3.16 µM, first compound 0.949 µM); 25.1% (second compound 3.16 µM, first compound 3 µM). For the same compound, the viability, T/C is, setting by setting: (second compound 10 µM, first compound 0.00949 µM) 61.2%; (second compound 10 µM, first compound 0.03 µM) 12.5%; (second compound 10 µM, first compound 0.0949 µM) 17.8%; (second compound 10 µM, first compound 0.3 µM) 14.6%; (second compound 10 µM, first compound 0.949 µM) 18%; (second compound 10 µM, first compound 3 µM) 16%.
As to `COc1cc(C2c3cc4c(cc3C(OC3OC5COC(C)OC5C(O)C3O)C3COC(=O)C23)OCO4)cc(OC)c1O` (centres undefined), the viability, T/C by setting is: (compound 0.0316 µM) 99.3% and 97.8% and 98.3%; (compound 0.1 µM) 83.6% and 97.1% and 85.7%; (compound 0.316 µM) 67.2% and 76.3% and 51.2%; (compound 1 µM) 21% and 16.1% and 18%; (compound 3.16 µM) 18.4% and 7.9% and 16%; (compound 10 µM) 16.8% and 7.28% and 16.6%. In addition, the IC50 (curve of compound) was 483 nM and 523 nM and 313 nM.
As to `COC1C(OC(N)=O)C(O)C(Oc2ccc3c(O)c(NC(=O)c4ccc(O)c(CC=C(C)C)c4)c(=O)oc3c2C)OC1(C)C` (centres undefined), the viability, T/C runs as follows: (compound 0.0316 µM) 99.8% [middle of 13 runs]; (compound 0.1 µM) 101% [middle of 13 runs]; (compound 0.316 µM) 100% [middle of 13 runs]; (compound 3.16 µM) 99.4% [middle of 13 runs]. Also, the IC50 (compound alone, run of 01/08/2024) is more than 10000 nM.

The values are drawn from PubChem BioAssay AID1963845 (Molecular Pharmacology Branch, DTP, NCI, 2024).
